These compounds were tested against T1, human CRHR2-alpha (Homo sapiens, UniProt Q13324) (assay: cAMP functional assay for human CRHR2 (LANCE Ultra TR-FRET)). Conditions: inhibition of cAMP production in CHO-K1 cells stably expressing human CRHR2-alpha, EC90 of human urocortin2 as agonist; read-out: IC50 against CRHR2.
T1 construct: host or cells: CHO-K1
T1 sequence (Q13324 1-411): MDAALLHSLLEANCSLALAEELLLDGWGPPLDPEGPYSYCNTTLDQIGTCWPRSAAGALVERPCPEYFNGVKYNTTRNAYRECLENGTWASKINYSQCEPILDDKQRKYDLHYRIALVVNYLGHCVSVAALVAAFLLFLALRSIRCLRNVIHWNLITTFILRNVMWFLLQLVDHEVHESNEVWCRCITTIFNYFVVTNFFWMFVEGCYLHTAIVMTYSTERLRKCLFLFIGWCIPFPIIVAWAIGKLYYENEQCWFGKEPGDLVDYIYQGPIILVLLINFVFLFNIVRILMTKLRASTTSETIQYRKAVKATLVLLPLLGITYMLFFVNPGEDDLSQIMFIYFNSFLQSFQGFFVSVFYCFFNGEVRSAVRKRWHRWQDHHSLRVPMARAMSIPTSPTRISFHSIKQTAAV
Type: cell-based
Method: cAMP functional assay for human CRHR2 The ability of the compounds of this invention to inhibit either CRHR2 is assessed by 3′,5′-cyclic adenosine monophosphate (cAMP) production in cells using the LANCE Ultra cAMP assay kit (ParkinElmer), which are designed based on the homogeneous time-resolved fluorescence resonance energy transfer (TR-FRET) immunoassay.
CHO-K1 (Chinese hamster ovary) cells stably expressing human CRHR2-alpha (DiscoveRX, Cat. 95-0048C2) are grown in HAM's F12 media supplemented with 10% fetal bovine serum (FBS), 100 units/mL penicillin G, 100 microg/mL hygromycin and 0.5 microg/mL geneticin at 37° C. in 5% CO2 humidified incubator to 80% confluence. After 7 hours starvation treatment in culture media containing 0.1% FBS, the cells are washed with Hanks balanced salt solution (HBSS) and cryopreserved.
For cAMP assay, frozen cells are thawed and washed with HBSS, followed by resuspending cells in assay buffer (HBSS containing 0.1% bovine serum albumin, 0.5 mM isobutylmethylxanthine and 5 mM Hepes, pH 7.4) at the appropriate concentration for the assay. The cell suspensions are plated on 384-well microplates (Greiner Bio-One) at a density of 4,000 cells per well. After preincubating the cells with various concentrations of the compounds for 30 min at 25° C., an assay buffer containing EC90 concentration of agonist is added and the cells are incubated for 30 min at 25° C. Human urocortin2 (Peptide Institute) is used as agonists for CRHR2. For the termination of assay, europium-labeled cAMP tracer and ULight (registered trademark) dye labeled cAMP antibodies, both prepared with Lance-Ultra cAMP detection reagent (PerkinElmer) are added in the plate and incubate for 60 min at 25° C. After incubation, TR-FRET signal is detected by EnVision plate reader (PerkinElmer). The IC50 values for compounds are calculated from dose-response curves by fitting the percent inhibition using XLfit (ID Business Solutions).

SMILES	IC50 [nM]
O=C(N[C@H]1CC[C@H](CN2C(=O)C(O)(c3ccccc3F)c3cc(F)ccc32)CC1)c1cc(Cl)cnc1C(F)F (some centres unmarked) [Example 93, 5-chloro-2-(difluoromethyl)-N-((1r,4r)-4-((5-fluoro-3-(2-fluorophenyl)-3-hydroxy-2-oxoindolin-1-yl)methyl)cyclohexyl) nicotinamide]	< 200
O=C(N[C@H]1CC[C@H](CN2C(=O)C(O)(c3ccccc3)c3ccccc32)CC1)c1cc(Cl)cnc1C(F)F (some centres unmarked) [Example 3, 5-chloro-2-(difluoromethyl)-N-((1r,4r)-4-((3-hydroxy-2-oxo-3-phenylindolin-1-yl)methyl)cyclohexyl) nicotinamide]	< 200
O=C(N[C@H]1CC[C@H](CN2C(=O)C(O)(c3ccccc3F)c3cccc(F)c32)CC1)c1cc(Cl)cnc1C(F)F (mixture of isomers) [Example 82, 5-chloro-2-(difluoromethyl)-N-((1r,4r)-4-((7-fluoro-3-(2-fluorophenyl)-3-hydroxy-2-oxoindolin-1-yl)methyl)cyclohexyl) nicotinamide]	< 200
COc1ccc(C2(O)C(=O)N(C[C@H]3CC[C@H](NC(=O)c4cc(Cl)cnc4C(F)F)CC3)c3ccccc32)cc1 (some centres unmarked) [Example 2, 5-chloro-2-(difluoromethyl)-N-((1r,4r)-4-((3-hydroxy-3-(4-methoxyphenyl)-2-oxoindolin-1-yl)methyl)cyclohexyl) nicotinamide]	< 200
O=C(N[C@H]1CC[C@H](CN2C(=O)C(O)(c3ccccc3F)c3ccc(F)cc32)CC1)c1cc(Cl)cnc1C(F)F (some centres unmarked) [Example 83, 5-chloro-2-(difluoromethyl)-N-((1r,4r)-4-((6-fluoro-3-(2-fluorophenyl)-3-hydroxy-2-oxoindolin-1-yl)methyl)cyclohexyl) nicotinamide]	< 200
O=C(N[C@H]1CC[C@H](CN2C(=O)C(O)(c3cccc(Cl)c3F)c3c(F)cccc32)CC1)c1cc(Cl)cnc1C(F)F (some centres unmarked) [Example 190, 5-chloro-N-((1r,4r)-4-((3-(3-chloro-2-fluorophenyl)-4-fluoro-3-hydroxy-2-oxoindolin-1-yl)methyl)cyclohexyl)-2-(difluoromethyl)nicotinamide]	< 200
Cc1ccc(C2(O)C(=O)N(C[C@H]3CC[C@H](NC(=O)c4cc(Cl)cnc4C(F)F)CC3)c3ccccc32)cc1 (some centres unmarked) [Example 56, 5-chloro-2-(difluoromethyl)-N-((1r,4r)-4-((3-hydroxy-2-oxo-3-(p-tolyl)indolin-1-yl)methyl)cyclohexyl) nicotinamide]	< 200
O=C(N[C@H]1CC[C@H](CN2C(=O)C(O)(c3ccc(Cl)cn3)c3c(F)cccc32)CC1)c1cc(Cl)cnc1C(F)F (some centres unmarked) [Example 140, 5-chloro-N-((1r,4r)-4-((3-(5-chloropyridin-2-yl)-4-fluoro-3-hydroxy-2-oxoindolin-1-yl)methyl)cyclohexyl)-2-(difluoromethyl)nicotinamide]	< 200
O=C(N[C@H]1CC[C@H](CN2C(=O)C(O)(c3ccc(F)cc3F)c3ccccc32)CC1)c1cc(Cl)cnc1C(F)F (some centres unmarked) [Example 53, 5-chloro-2-(difluoromethyl)-N-((1r,4r)-4-((3-(2,4-difluorophenyl)-3-hydroxy-2-oxoindolin-1-yl)methyl)cyclohexyl) nicotinamide]	< 200
COc1cccc2c1C(O)(c1cccc(F)c1F)C(=O)N2C[C@H]1CC[C@H](NC(=O)c2cc(Cl)cnc2C(F)F)CC1 (some centres unmarked) [Example 158, 5-chloro-2-(difluoromethyl)-N-((1r,4r)-4-((3-(2,3-difluorophenyl)-3-hydroxy-4-methoxy-2-oxoindolin-1-yl)methyl)cyclohexyl) nicotinamide]	< 200
Cc1ncc(Cl)cc1C(=O)N[C@H]1CC[C@H](CN2C(=O)C(O)(c3cc(F)cc(F)c3F)c3ccccc32)CC1 (some centres unmarked) [Example 132, 5-chloro-N-((1r,4r)-4-((3-hydroxy-2-oxo-3-(2,3,5-trifluorophenyl)indolin-1-yl)methyl)cyclohexyl)-2-methylnicotinamide]	< 200
O=C(N[C@H]1CC[C@H](CN2C(=O)C(O)(c3ccc(F)c(F)c3F)c3ccccc32)CC1)c1cc(Cl)cnc1C(F)F (some centres unmarked) [Example 135, 5-chloro-2-(difluoromethyl)-N-((1r,4r)-4-((3-hydroxy-2-oxo-3-(2,3,4-trifluorophenyl)indolin-1-yl)methyl)cyclohexyl) nicotinamide]	< 200
O=C(N[C@H]1CC[C@H](CN2C(=O)C(O)(c3ccc(Cl)cn3)c3ccccc32)CC1)c1cc(Cl)cnc1C(F)F (some centres unmarked) [Example 13, 5-chloro-N-((1r,4r)-4-((3-(5-chloropyridin-2-yl)-3-hydroxy-2-oxoindolin-1-yl)methyl)cyclohexyl)-2-(difluoromethyl)nicotinamide]	< 200
COc1ccc(F)c(C2(O)C(=O)N(C[C@H]3CC[C@H](NC(=O)c4cc(Cl)cnc4C(F)F)CC3)c3ccc(F)cc32)c1 (some centres unmarked) [Example 168, 5-chloro-2-(difluoromethyl)-N-((1r,4r)-4-((5-fluoro-3-(2-fluoro-5-methoxyphenyl)-3-hydroxy-2-oxoindolin-1-yl)methyl)cyclohexyl) nicotinamide]	< 200
Cc1ncc(Cl)cc1C(=O)N[C@H]1CC[C@H](CN2C(=O)C(O)(c3cccc(F)c3F)c3cc(F)ccc32)CC1 (some centres unmarked) [Example 162, 5-chloro-N-((1r,4r)-4-((3-(2,3-difluorophenyl)-5-fluoro-3-hydroxy-2-oxoindolin-1-yl)methyl)cyclohexyl)-2-methylnicotinamide]	< 200
O=C(N[C@H]1CC[C@H](CN2C(=O)C(O)(c3ccccc3F)c3cccnc32)CC1)c1cc(Cl)cnc1C(F)F (some centres unmarked) [Example 94, 5-chloro-2-(difluoromethyl)-N-((1r,4r)-4-((3-(2-fluorophenyl)-3-hydroxy-2-oxo-2,3-dihydro-1H-pyrrolo[2,3-b]pyridin-1-yl)methyl)cyclohexyl) nicotinamide]	< 200
O=C(N[C@H]1CC[C@H](CN2C(=O)C(O)(c3ccc(F)cc3)c3ccccc32)CC1)c1cc(Cl)cnc1C(F)F (some centres unmarked) [Example 17, 5-chloro-2-(difluoromethyl)-N-((1r,4r)-4-((3-(4-fluorophenyl)-3-hydroxy-2-oxoindolin-1-yl)methyl)cyclohexyl) nicotinamide]	< 200
O=C(N[C@H]1CC[C@H](CN2C(=O)C(O)(c3cc(F)cs3)c3ccccc32)CC1)c1cc(Cl)cnc1C(F)F (some centres unmarked) [Example 98, 5-chloro-2-(difluoromethyl)-N-((1r,4r)-4-((3-(4-fluorothiophen-2-yl)-3-hydroxy-2-oxoindolin-1-yl)methyl)cyclohexyl) nicotinamide]	< 200
O=C(N[C@H]1CC[C@H](CN2C(=O)C(O)(c3ccccc3F)c3c(F)cc(F)cc32)CC1)c1cc(Cl)cnc1C(F)F (some centres unmarked) [Example 177, 5-chloro-N-((1r,4r)-4-((4,6-difluoro-3-(2-fluorophenyl)-3-hydroxy-2-oxoindolin-1-yl)methyl)cyclohexyl)-2-(difluoromethyl)nicotinamide]	< 200
O=C(N[C@H]1CC[C@H](CN2C(=O)C(O)(c3ccc(Cl)cn3)c3ccc(F)cc32)CC1)c1cc(Cl)cnc1C(F)F (some centres unmarked) [Example 119, 5-chloro-N-((1r,4r)-4-((3-(5-chloropyridin-2-yl)-6-fluoro-3-hydroxy-2-oxoindolin-1-yl)methyl)cyclohexyl)-2-(difluoromethyl)nicotinamide]	< 200
COc1ccc(F)c(C2(O)C(=O)N(C[C@H]3CC[C@H](NC(=O)c4cc(Cl)cnc4C)CC3)c3ccccc32)c1 (some centres unmarked) [Example 128, 5-chloro-N-((1r,4r)-4-((3-(2-fluoro-5-methoxyphenyl)-3-hydroxy-2-oxoindolin-1-yl)methyl)cyclohexyl)-2-methylnicotinamide]	< 200
COc1ccc(F)c(C2(O)C(=O)N(C[C@H]3CC[C@H](NC(=O)c4cc(Cl)cnc4C(F)F)CC3)c3ccccc32)c1 (some centres unmarked) [Example 74, 5-chloro-2-(difluoromethyl)-N-((1r,4r)-4-((3-(2-fluoro-5-methoxyphenyl)-3-hydroxy-2-oxoindolin-1-yl)methyl)cyclohexyl) nicotinamide]	< 200
O=C(N[C@H]1CC[C@H](CN2C(=O)C(O)(c3cccc(F)c3F)c3cc(F)ccc32)CC1)c1cc(Cl)cnc1C(F)F (some centres unmarked) [Example 123, 5-chloro-2-(difluoromethyl)-N-((1r,4r)-4-((3-(2,3-difluorophenyl)-5-fluoro-3-hydroxy-2-oxoindolin-1-yl)methyl)cyclohexyl) nicotinamide]	< 200

— patent US12421191B2, “3-hydroxyoxindole derivatives as CRHR2 antagonist” (RaQualia Pharma Inc., priority 2020, dated 2025)
